Experimental data as given in the supplement of paper PMC10307832.

Columns and labels:
Assay in all cases: relative viability (nuclei count vs DMSO), 5 days (fraction); higher = more cells survive
Sunitinib + Trametinib = compound: CCN(CC)CCNC(=O)c1c(C)[nH]c(/C=C2\C(=O)Nc3ccc(F)cc32)c1C [Sunitinib] + CC(=O)Nc1cccc(-n2c(=O)n(C3CC3)c(=O)c3c(Nc4ccc(I)cc4F)n(C)c(=O)c(C)c32)c1 [Trametinib] (partner 0.02 µM)
How it was run: (§1)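 Lung cancer cell lines, seeded in 1536-well plates, were treated the following day by pin tool with a single drug or with five library-drug doses (not always all listed) in √10 steps on top of a fixed anchor-drug dose. Cells were fixed and nuclei stained in one step after 5 days, and nuclei were counted. Relative viability is the nuclei count for treated wells divided by that for vehicle wells, reported as medians of duplicate plates.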

Sunitinib + Bortezomib = compound: CCN(CC)CCNC(=O)c1c(C)[nH]c(/C=C2\C(=O)Nc3ccc(F)cc32)c1C [Sunitinib] + CC(C)C[C@H](NC(=O)[C@H](Cc1ccccc1)NC(=O)c1cnccn1)B(O)O [Bortezomib] (partner 0.002 µM)
How it was run: as §1

Sunitinib + Pictilisib = compound: CCN(CC)CCNC(=O)c1c(C)[nH]c(/C=C2\C(=O)Nc3ccc(F)cc32)c1C [Sunitinib] + CS(=O)(=O)N1CCN(Cc2cc3nc(-c4cccc5[nH]ncc45)nc(N4CCOCC4)c3s2)CC1 [Pictilisib] (partner 1 µM)
How it was run: as §1

Sunitinib + Olaparib = compound: CCN(CC)CCNC(=O)c1c(C)[nH]c(/C=C2\C(=O)Nc3ccc(F)cc32)c1C [Sunitinib] + O=C(c1cc(Cc2n[nH]c(=O)c3ccccc23)ccc1F)N1CCN(C(=O)C2CC2)CC1 [Olaparib] (partner 8 µM)
How it was run: as §1

Row | Cell Line | relative viability (Sunitinib + Trametinib; first compound 0.02 µM) | relative viability (Sunitinib + Trametinib; first compound 0.06325 µM) | relative viability (Sunitinib + Trametinib; first compound 0.2 µM) | relative viability (Sunitinib + Trametinib; first compound 0.6325 µM) | relative viability (Sunitinib + Trametinib; first compound 2 µM) | relative viability (Sunitinib + Bortezomib; first compound 0.02 µM) | relative viability (Sunitinib + Bortezomib; first compound 0.06325 µM) | relative viability (Sunitinib + Bortezomib; first compound 0.2 µM) | relative viability (Sunitinib + Bortezomib; first compound 0.6325 µM) | relative viability (Sunitinib + Bortezomib; first compound 2 µM) | relative viability (Sunitinib + Pictilisib; first compound 0.02 µM) | relative viability (Sunitinib + Pictilisib; first compound 0.06325 µM) | relative viability (Sunitinib + Pictilisib; first compound 0.2 µM) | relative viability (Sunitinib + Pictilisib; first compound 0.6325 µM) | relative viability (Sunitinib + Pictilisib; first compound 2 µM) | relative viability (Sunitinib + Olaparib; first compound 0.02 µM) | relative viability (Sunitinib + Olaparib; first compound 0.06325 µM) | relative viability (Sunitinib + Olaparib; first compound 0.2 µM) | relative viability (Sunitinib + Olaparib; first compound 0.6325 µM) | relative viability (Sunitinib + Olaparib; first compound 2 µM)
1 | 201T | 0.704 | 0.75 | 0.739 | 0.717 | 0.697 | 1.08 | 1.09 | 1.13 | 1.09 | 1.08 | 0.697 | 0.708 | 0.738 | 0.675 | 0.738 | 0.843 | 0.845 | 0.855 | 0.865 | 0.853
2 | A549 |  |  |  |  |  |  |  |  |  |  | 0.457 | 0.546 | 0.589 | 0.631 | 0.412 | 0.282 | 0.326 | 0.348 | 0.484 | 0.383
3 | A-427 | 0.759 | 0.758 | 0.893 | 0.821 | 0.728 |  | 0.987 | 0.976 | 0.986 | 0.936 | 0.702 | 0.8 | 0.926 | 0.748 | 0.73 | 0.701 | 0.721 | 0.832 | 0.848 | 0.771
4 | ABC-1 |  |  |  |  |  | 0.294 | 0.309 | 0.297 | 0.289 | 0.312 | 0.818 |  | 0.668 | 0.991 | 0.802 | 0.728 | 0.919 | 0.868 | 1.06 | 0.966
5 | BEN | 0.9 |  | 1.06 | 1.08 | 1.05 | 0.769 | 0.904 | 0.757 | 0.784 | 0.733 | 0.494 | 0.552 | 0.615 | 0.566 | 0.52 | 1.02 | 1.03 | 1.14 | 1.08 | 0.956
6 | Calu-6 |  |  |  |  |  | 0.979 |  | 1.08 | 1.2 | 1.09 | 0.901 | 0.887 | 1.13 | 1.09 | 0.93 | 0.575 | 0.57 | 0.598 | 0.571 | 0.614
7 | IA-LM |  |  |  |  |  | 0.831 | 0.85 | 0.868 | 1.12 | 1.18 | 0.419 | 0.395 | 0.358 | 0.331 | 0.402 | 0.826 | 0.973 | 0.842 |  | 0.981
8 | LK-2 | 0.498 | 0.809 | 0.858 | 0.747 | 0.964 |  |  |  |  |  | 0.505 | 0.543 | 0.558 | 0.573 | 0.465 | 0.668 | 0.82 | 0.926 | 0.617 | 0.6
9 | NCI-H358 | 0.137 | 0.143 | 0.138 | 0.127 | 0.14 |  |  |  |  |  | 0.369 | 0.38 | 0.34 | 0.359 | 0.261 | 0.452 | 0.617 | 0.756 | 0.666 | 0.471
